Assay results taken from patent publication US20210045385A1, “PYRIDAZINONE-SUBSTITUTED KETOXIMES AS HERBICIDES” (FMC Corporation, priority 2018, published 2021).

How the values were obtained:
Format in all cases: in vivo
rice (Oryza sativa) = assay: Test B flooded paddy test, visual plant response rating; settings: 250 g ai/ha, Flood, applied to paddy water, 2-leaf stage, evaluated after 13 to 15 days
Summary of the method: (§1)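 Rice, umbrella sedge, ducksalad and barnyardgrass grown to 2-leaf stage; pots flooded 3 cm above soil and compound applied directly to paddy water, depth maintained.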

[1] = tested on: ducksalad (Heteranhera limosa); assay: as above; settings: 250 g ai/ha, Flood, applied to paddy water, 2-leaf stage, evaluated after 13 to 15 days
Summary of the method: as §1

[2] = tested on: sedge, umbrella (small-flower umbrella sedge, Cyperus difformis); assay: as above; settings: 250 g ai/ha, Flood, applied to paddy water, 2-leaf stage, evaluated after 13 to 15 days
Summary of the method: as §1

[3] = tested on: barnyardgrass (Echinochloa crus-galli); assay: as above; settings: 250 g ai/ha, Flood, applied to paddy water, 2-leaf stage, evaluated after 13 to 15 days
Summary of the method: as §1

[4] = tested on: Italian ryegrass (Lolium multiflorum); assay: Test A postemergence, visual plant response rating; settings: for Ryegrass, Italian plant response rating (0 to 100 scale): 500 g ai/ha, postemergence, 0 is no effect, 100 is complete control; for Ryegrass, Italian plant response rating: Postemergence, 125 g ai/ha, 0 to 100 scale (0 no effect, 100 complete control)
Summary of the method: (§2)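 Formulated in a non-phytotoxic solvent mixture including surfactant, each test chemical was sprayed onto the soil surface after sowing, or onto seedlings 2 to 10 cm high. Roughly 10 days later, plants were compared with untreated controls and rated for injury from 0 (no effect) to 100 (complete control).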

kochia (Kochia scoparia) [5] = assay: Test A postemergence, visual plant response rating; settings: for Kochia plant response rating (0 to 100 scale): 500 g ai/ha, postemergence, 0 is no effect, 100 is complete control; for Kochia plant response rating: Postemergence, 125 g ai/ha, 0 to 100 scale (0 no effect, 100 complete control)
Summary of the method: as §2

[6] = tested on: galium (catchweed bedstraw, Galium aparine); assay: Test A postemergence, visual plant response rating; settings: for Galium plant response rating (0 to 100 scale): 500 g ai/ha, postemergence, 0 is no effect, 100 is complete control; for Galium plant response rating: Postemergence, 125 g ai/ha, 0 to 100 scale (0 no effect, 100 complete control)
Summary of the method: as §2

[7] = tested on: blackgrass (Alopecurus myosuroides); assay: Test A postemergence, visual plant response rating; settings: for Blackgrass plant response rating (0 to 100 scale): 500 g ai/ha, postemergence, 0 is no effect, 100 is complete control; for Blackgrass plant response rating: Postemergence, 125 g ai/ha, 0 to 100 scale (0 no effect, 100 complete control)
Summary of the method: as §2

corn (Zea mays) = assay: Test A postemergence, visual plant response rating; settings: for Corn plant response rating (0 to 100 scale): 500 g ai/ha, postemergence, 0 is no effect, 100 is complete control; for Corn plant response rating: Postemergence, 125 g ai/ha, 0 to 100 scale (0 no effect, 100 complete control)
Summary of the method: as §2

[8] = tested on: foxtail, giant (giant foxtail, Setaria faberii); assay: Test A postemergence, visual plant response rating; settings: for Foxtail, Giant plant response rating (0 to 100 scale): 500 g ai/ha, postemergence, 0 is no effect, 100 is complete control; for Foxtail, Giant plant response rating: Postemergence, 125 g ai/ha, 0 to 100 scale (0 no effect, 100 complete control)
Summary of the method: as §2

[9] = tested on: ragweed (common ragweed, Ambrosia elatior); assay: Test A postemergence, visual plant response rating; settings: for Ragweed plant response rating (0 to 100 scale): 500 g ai/ha, postemergence, 0 is no effect, 100 is complete control; for Ragweed plant response rating: Postemergence, 125 g ai/ha, 0 to 100 scale (0 no effect, 100 complete control)
Summary of the method: as §2

[10] = tested on: barnyardgrass (Echinochloa crus-galli); assay: Test A postemergence, visual plant response rating; settings: for Barnyardgrass plant response rating (0 to 100 scale): 500 g ai/ha, postemergence, 0 is no effect, 100 is complete control; for Barnyardgrass plant response rating: Postemergence, 125 g ai/ha, 0 to 100 scale (0 no effect, 100 complete control)
Summary of the method: as §2

[11] = tested on: wheat (Triticum aestivum); assay: Test A postemergence, visual plant response rating; settings: for Wheat plant response rating (0 to 100 scale): 500 g ai/ha, postemergence, 0 is no effect, 100 is complete control; for Wheat plant response rating: Postemergence, 125 g ai/ha, 0 to 100 scale (0 no effect, 100 complete control)
Summary of the method: as §2

[12] = tested on: pigweed (Amaranthus retroflexus); assay: Test A postemergence, visual plant response rating; settings: for Pigweed plant response rating (0 to 100 scale): 500 g ai/ha, postemergence, 0 is no effect, 100 is complete control; for Pigweed plant response rating: Postemergence, 125 g ai/ha, 0 to 100 scale (0 no effect, 100 complete control)
Summary of the method: as §2

[13] = tested on: Italian ryegrass (Lolium multiflorum); assay: Test A preemergence, visual plant response rating; settings: for Ryegrass, Italian plant response rating (0 to 100 scale): 500 g ai/ha Preemergence, approx. 10 days
Summary of the method: as §2

kochia (Kochia scoparia) [14] = assay: Test A preemergence, visual plant response rating; settings: for Kochia plant response rating: 125 g ai/ha, preemergence, 0 to 100 scale, 0 no effect, 100 complete control; for Kochia plant response rating (0 to 100 scale): 500 g ai/ha Preemergence, approx. 10 days
Summary of the method: as §2

[15] = tested on: foxtail, giant (giant foxtail, Setaria faberii); assay: Test A preemergence, visual plant response rating; settings: for Foxtail, Giant plant response rating: 125 g ai/ha, preemergence, 0 to 100 scale, 0 no effect, 100 complete control; for Foxtail, Giant plant response rating (0 to 100 scale): 500 g ai/ha Preemergence, approx. 10 days
Summary of the method: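 Ratings 0–100 (100 = complete control), visual, vs untreated controls at ~10 days. Application pre- or postemergence; solvent mixture with surfactant; loam/sand medium.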

[16] = tested on: ragweed (common ragweed, Ambrosia elatior); assay: Test A preemergence, visual plant response rating; settings: for Ragweed plant response rating: 125 g ai/ha, preemergence, 0 to 100 scale, 0 no effect, 100 complete control; for Ragweed plant response rating (0 to 100 scale): 500 g ai/ha Preemergence, approx. 10 days
Summary of the method: as §2

[17] = tested on: barnyardgrass (Echinochloa crus-galli); assay: Test A preemergence, visual plant response rating; settings: for Barnyardgrass plant response rating: 125 g ai/ha, preemergence, 0 to 100 scale, 0 no effect, 100 complete control; for Barnyardgrass plant response rating (0 to 100 scale): 500 g ai/ha Preemergence, approx. 10 days
Summary of the method: as §2

[18] = tested on: pigweed (Amaranthus retroflexus); assay: Test A preemergence, visual plant response rating; settings: for Pigweed plant response rating: 125 g ai/ha, preemergence, 0 to 100 scale, 0 no effect, 100 complete control; for Pigweed plant response rating (0 to 100 scale): 500 g ai/ha Preemergence, approx. 10 days
Summary of the method: as §2

CON=C(c1cccc(C2CC2)c1)c1c(O)c(C)nn(C)c1=O [Compound 123]
Plant response rating, Rice (0 to 100 scale, 0 is no effect, 100 is complete control) (rice (Oryza sativa)): 0
Plant response rating, Ducksalad (0 to 100 scale, 0 is no effect, 100 is complete control) [1]: 0
Plant response rating, Sedge, Umbrella (0 to 100 scale, 0 is no effect, 100 is complete control) [2]: 0
Plant response rating, Barnyardgrass (0 to 100 scale, 0 is no effect, 100 is complete control) [3]: 0
Ryegrass, Italian plant response rating (0 to 100 scale) [4]: 80
Ryegrass, Italian plant response rating [4]: 60
Kochia plant response rating (0 to 100 scale) (kochia (Kochia scoparia) [5]): 70
Kochia plant response rating (kochia (Kochia scoparia) [5]): 50
Galium plant response rating (0 to 100 scale) [6]: 80
Galium plant response rating [6]: 70
Blackgrass plant response rating (0 to 100 scale) [7]: 30
Blackgrass plant response rating [7]: 20
Corn plant response rating (0 to 100 scale) (corn (Zea mays)): 0
Corn plant response rating (corn (Zea mays)): 0
Foxtail, Giant plant response rating (0 to 100 scale) [8]: 60
Foxtail, Giant plant response rating [8]: 20
Ragweed plant response rating (0 to 100 scale) [9]: 90
Ragweed plant response rating [9]: 80
Barnyardgrass plant response rating (0 to 100 scale) [10]: 40
Barnyardgrass plant response rating [10]: 0
Wheat plant response rating (0 to 100 scale) [11]: 10
Wheat plant response rating [11]: 0
Pigweed plant response rating (0 to 100 scale) [12]: 80
Pigweed plant response rating [12]: 70
Ryegrass, Italian plant response rating (0 to 100 scale) [13]: 90
Kochia plant response rating (kochia (Kochia scoparia) [14]): 10
Kochia plant response rating (0 to 100 scale) (kochia (Kochia scoparia) [14]): 50
Foxtail, Giant plant response rating [15]: 10
Foxtail, Giant plant response rating (0 to 100 scale) [15]: 40
Ragweed plant response rating [16]: 50
Ragweed plant response rating (0 to 100 scale) [16]: 80
Barnyardgrass plant response rating [17]: 0
Barnyardgrass plant response rating (0 to 100 scale) [17]: 50
Pigweed plant response rating [18]: 40
Pigweed plant response rating (0 to 100 scale) [18]: 60

CON=C(c1c(O)c(C)nn(C)c1=O)c1cccc2ccoc12 [Compound 61]
Plant response rating, Rice (0 to 100 scale, 0 is no effect, 100 is complete control) (rice (Oryza sativa)): 0
Plant response rating, Ducksalad (0 to 100 scale, 0 is no effect, 100 is complete control) [1]: 0
Plant response rating, Sedge, Umbrella (0 to 100 scale, 0 is no effect, 100 is complete control) [2]: 0
Plant response rating, Barnyardgrass (0 to 100 scale, 0 is no effect, 100 is complete control) [3]: 0
Ryegrass, Italian plant response rating (0 to 100 scale) [4]: 70
Ryegrass, Italian plant response rating [4]: 10
Kochia plant response rating (0 to 100 scale) (kochia (Kochia scoparia) [5]): 50
Kochia plant response rating (kochia (Kochia scoparia) [5]): 30
Galium plant response rating (0 to 100 scale) [6]: 80
Galium plant response rating [6]: 60
Blackgrass plant response rating (0 to 100 scale) [7]: 20
Blackgrass plant response rating [7]: 10
Corn plant response rating (0 to 100 scale) (corn (Zea mays)): 0
Corn plant response rating (corn (Zea mays)): 0
Foxtail, Giant plant response rating (0 to 100 scale) [8]: 20
Foxtail, Giant plant response rating [8]: 0
Ragweed plant response rating (0 to 100 scale) [9]: 30
Ragweed plant response rating [9]: 10
Barnyardgrass plant response rating (0 to 100 scale) [10]: 20
Barnyardgrass plant response rating [10]: 0
Wheat plant response rating (0 to 100 scale) [11]: 40
Wheat plant response rating [11]: 30
Pigweed plant response rating (0 to 100 scale) [12]: 80
Pigweed plant response rating [12]: 50
Ryegrass, Italian plant response rating ([13]; 125 g ai/ha, preemergence, 0 to 100 scale, 0 no effect, 100 complete control): 30
Ryegrass, Italian plant response rating (0 to 100 scale) [13]: 80
Kochia plant response rating (kochia (Kochia scoparia) [14]): 0
Kochia plant response rating (0 to 100 scale) (kochia (Kochia scoparia) [14]): 0
Foxtail, Giant plant response rating [15]: 0
Foxtail, Giant plant response rating (0 to 100 scale) [15]: 10
Ragweed plant response rating [16]: 0
Ragweed plant response rating (0 to 100 scale) [16]: 70
Barnyardgrass plant response rating [17]: 0
Barnyardgrass plant response rating (0 to 100 scale) [17]: 0
Pigweed plant response rating [18]: 0
Pigweed plant response rating (0 to 100 scale) [18]: 0
